Read-outs that look alike come from different tables or passages of the source.
How the values were obtained:
[1] = Compatibility of Levetiracetam with excipients (impurity profile); assay type: physicochemical
Description: Levetiracetam was tested for its compatibility with several pharmaceutically acceptable excipients comprising the above mentioned properties.

[2] = cited from earlier work
[3] = cited from earlier work; remark: listed apart in the source

CC[C@@H](C(N)=O)N1CCCC1=O [Levetiracetam, S-enantiomer of α-ethyl-2-oxo-1-pyrrolidine acetamide]
impurity profile of the active ingredient with excipient ([1]; with PVP): not acceptable
impurity profile of the active ingredient with excipient ([1]; with sodium starch glycolate (Primojel)): not acceptable
solubility ([2]; in acetonitrile): sparingly soluble
solubility ([2]; in chloroform): freely soluble
solubility ([2]; in methanol): freely soluble
solubility ([2]; in n-hexane): practically insoluble
solubility ([2]; in water): very soluble
bioavailability [3]: 100%
protein binding [3]: lack of protein binding
